From ChEMBL document CHEMBL5579820, “New insights into butyrylcholinesterase: Pharmaceutical applications, selective inhibitors and multitarget-directed ligands” (Eur J Med Chem, 2024)
pIC50: −log10 of the molar value.

Columns and labels:
Cholinesterase [1] = molecular target: T1, Cholinesterase (Homo sapiens, UniProt P06276)
Acetylcholinesterase [2] = molecular target: T2, Acetylcholinesterase (Homo sapiens, UniProt P22303)
[3] = molecular target: Amyloid-beta precursor protein (Homo sapiens) (UniProt P05067); assay: Inhibition of self induced amyloid-beta aggregation (1 to 42 residues) (unknown origin) at 20 uM by ThT fluorescence based spectrofluorimetric analysis relative to control
Cholinesterase [4] = molecular target: T3, Cholinesterase (Equus caballus, UniProt P81908); assay: Inhibition of equine BuChE
Acetylcholinesterase [5] = molecular target: T4, Acetylcholinesterase (Electrophorus electricus, UniProt O42275); assay: Inhibition of electric eel AChE
Acetylcholinesterase [6] = molecular target: T2, Acetylcholinesterase; assay: Inhibition of human AChE at 15 uM relative to control
Cholinesterase [7] = molecular target: T1, Cholinesterase; assay: Inhibition of human BChE using butyrylthiocholineiodide as substrate at 10 uM by Ellman's method relative to control
Acetylcholinesterase [8] = molecular target: T2, Acetylcholinesterase; assay: Inhibition of human AChE by Ellman's method
Cholinesterase [9] = molecular target: T1, Cholinesterase; assay: Inhibition of human BChE using butyrylthiocholine as substrate by Ellman's method
[10] = molecular target: T5, Protein deacetylase HDAC6 (Homo sapiens, UniProt Q9UBN7); assay: Inhibition of HDAC6 (unknown origin)
T5 sequence (Q9UBN7 whole entry): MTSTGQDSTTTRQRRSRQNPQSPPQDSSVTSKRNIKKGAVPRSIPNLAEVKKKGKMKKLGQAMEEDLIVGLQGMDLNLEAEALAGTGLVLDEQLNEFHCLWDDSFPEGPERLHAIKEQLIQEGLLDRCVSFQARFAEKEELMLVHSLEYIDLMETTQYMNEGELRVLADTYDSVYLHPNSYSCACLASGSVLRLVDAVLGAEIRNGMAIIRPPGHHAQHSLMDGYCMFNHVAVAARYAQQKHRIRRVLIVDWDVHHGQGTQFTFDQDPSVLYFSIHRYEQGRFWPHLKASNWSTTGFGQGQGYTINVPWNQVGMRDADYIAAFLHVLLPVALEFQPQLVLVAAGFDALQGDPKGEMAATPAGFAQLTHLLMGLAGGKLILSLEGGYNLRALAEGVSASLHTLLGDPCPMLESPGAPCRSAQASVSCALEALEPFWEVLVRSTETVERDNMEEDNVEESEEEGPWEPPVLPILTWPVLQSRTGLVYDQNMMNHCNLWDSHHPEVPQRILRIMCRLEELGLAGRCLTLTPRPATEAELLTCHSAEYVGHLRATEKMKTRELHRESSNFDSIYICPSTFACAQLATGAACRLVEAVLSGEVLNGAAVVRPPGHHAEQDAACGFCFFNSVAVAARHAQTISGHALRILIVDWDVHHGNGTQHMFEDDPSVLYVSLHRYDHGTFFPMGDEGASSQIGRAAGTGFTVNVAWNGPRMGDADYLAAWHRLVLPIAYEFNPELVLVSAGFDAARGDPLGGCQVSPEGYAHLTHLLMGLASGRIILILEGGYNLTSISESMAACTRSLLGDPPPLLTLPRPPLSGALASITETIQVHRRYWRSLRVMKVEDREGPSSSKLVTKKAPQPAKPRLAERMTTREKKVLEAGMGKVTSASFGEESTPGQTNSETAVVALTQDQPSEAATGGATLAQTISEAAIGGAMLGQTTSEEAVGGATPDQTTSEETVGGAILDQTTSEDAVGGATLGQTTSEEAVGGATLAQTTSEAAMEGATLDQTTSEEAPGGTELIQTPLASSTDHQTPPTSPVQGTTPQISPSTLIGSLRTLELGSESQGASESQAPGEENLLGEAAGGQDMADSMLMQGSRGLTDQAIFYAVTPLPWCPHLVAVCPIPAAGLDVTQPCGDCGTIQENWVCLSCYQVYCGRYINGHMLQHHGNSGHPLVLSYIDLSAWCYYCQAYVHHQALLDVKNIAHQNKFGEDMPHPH

Cholinesterase [11] = molecular target: T1, Cholinesterase; assay: Inhibition of human BChE using butyrylthiocholine iodide as substrate preincubated for 15 min followed by substrate addition measured after 40 min by Ellman's method
[12] = molecular target: T6, Amine oxidase [flavin-containing] A (Homo sapiens, UniProt P21397); assay: Inhibition of human recombinant MAO-A using kynuramine as substrate by incubated for 75 mins by spectrophotometric analysis
T6 sequence (P21397 whole entry): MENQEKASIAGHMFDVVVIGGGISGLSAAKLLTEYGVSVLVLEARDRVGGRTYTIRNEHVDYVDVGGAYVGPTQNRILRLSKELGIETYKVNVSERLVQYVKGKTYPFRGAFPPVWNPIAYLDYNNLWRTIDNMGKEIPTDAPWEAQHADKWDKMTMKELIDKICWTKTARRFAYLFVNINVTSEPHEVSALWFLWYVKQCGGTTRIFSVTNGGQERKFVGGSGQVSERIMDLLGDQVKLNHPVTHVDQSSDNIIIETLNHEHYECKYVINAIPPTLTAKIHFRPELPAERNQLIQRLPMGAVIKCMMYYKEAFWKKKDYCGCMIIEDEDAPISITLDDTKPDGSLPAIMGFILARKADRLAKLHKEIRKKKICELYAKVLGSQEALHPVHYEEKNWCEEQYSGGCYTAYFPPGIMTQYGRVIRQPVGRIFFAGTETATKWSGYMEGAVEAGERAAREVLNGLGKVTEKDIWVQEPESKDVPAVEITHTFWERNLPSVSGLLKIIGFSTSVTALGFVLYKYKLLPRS

[13] = molecular target: T7, Amine oxidase [flavin-containing] B (Homo sapiens, UniProt P27338); assay: Inhibition of human recombinant MAO-B using benzylamine as substrate by fluorescence based analysis
T7 sequence (P27338 whole entry): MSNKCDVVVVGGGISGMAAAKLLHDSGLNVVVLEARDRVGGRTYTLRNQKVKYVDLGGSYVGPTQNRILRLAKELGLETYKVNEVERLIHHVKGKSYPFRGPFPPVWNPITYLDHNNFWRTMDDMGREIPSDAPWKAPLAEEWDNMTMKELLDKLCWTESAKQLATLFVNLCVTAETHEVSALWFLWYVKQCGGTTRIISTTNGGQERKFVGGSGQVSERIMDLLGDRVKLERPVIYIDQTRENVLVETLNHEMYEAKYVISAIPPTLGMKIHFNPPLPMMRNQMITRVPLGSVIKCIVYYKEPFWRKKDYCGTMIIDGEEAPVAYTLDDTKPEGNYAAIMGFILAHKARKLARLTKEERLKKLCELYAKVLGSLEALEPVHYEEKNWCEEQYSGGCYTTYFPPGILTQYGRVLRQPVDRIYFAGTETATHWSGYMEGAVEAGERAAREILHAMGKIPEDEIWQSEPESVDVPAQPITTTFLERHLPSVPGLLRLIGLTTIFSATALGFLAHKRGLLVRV

[14] = Inhibition of equine serum BChE using butyrylthiocholine iodide as substrate by measured after 30 mins Ellman's method; assay type: cell-free, Equus caballus
Acetylcholinesterase [15] = molecular target: T4, Acetylcholinesterase; assay: Inhibition of electric eel AChE using acetylthiocholine iodide as substrate after 60 mins by Ellman's method
Cholinesterase [16] = molecular target: T3, Cholinesterase; assay: Inhibition of equine serum BuChE by Ellman's method
[17] = molecular target: Cholinesterase (Equus caballus) (UniProt P81908); assay: Inhibition of equine BChE at 100 uM by Ellman's method relative to control
[18] = Selectivity index, ratio of IC50 for electric eel AChE to IC50 for equine serum BuChE
Acetylcholinesterase [19] = molecular target: T2, Acetylcholinesterase; assay: Inhibition of AChE (unknown origin)
Cholinesterase [20] = molecular target: T1, Cholinesterase; assay: Inhibition of BChE (unknown origin)
Cholinesterase [21] = molecular target: T3, Cholinesterase; assay: Inhibition of equine serum BuChE using butyrylthiocholine iodide as substrate preincubated for 60 mins followed by susbtrate addition by Ellaman"s method; assay type: cell-free
Acetylcholinesterase [22] = molecular target: T4, Acetylcholinesterase; assay: Inhibition of Electric eel AChE using […] as substrate by spectrophotometry based Ellman's method
[23] = Inhibition of equine serum BChE using butyrylthiocholine iodide as substrate by Ellman's method; design: species or system Equus caballus

T4 sequence (O42275 whole entry): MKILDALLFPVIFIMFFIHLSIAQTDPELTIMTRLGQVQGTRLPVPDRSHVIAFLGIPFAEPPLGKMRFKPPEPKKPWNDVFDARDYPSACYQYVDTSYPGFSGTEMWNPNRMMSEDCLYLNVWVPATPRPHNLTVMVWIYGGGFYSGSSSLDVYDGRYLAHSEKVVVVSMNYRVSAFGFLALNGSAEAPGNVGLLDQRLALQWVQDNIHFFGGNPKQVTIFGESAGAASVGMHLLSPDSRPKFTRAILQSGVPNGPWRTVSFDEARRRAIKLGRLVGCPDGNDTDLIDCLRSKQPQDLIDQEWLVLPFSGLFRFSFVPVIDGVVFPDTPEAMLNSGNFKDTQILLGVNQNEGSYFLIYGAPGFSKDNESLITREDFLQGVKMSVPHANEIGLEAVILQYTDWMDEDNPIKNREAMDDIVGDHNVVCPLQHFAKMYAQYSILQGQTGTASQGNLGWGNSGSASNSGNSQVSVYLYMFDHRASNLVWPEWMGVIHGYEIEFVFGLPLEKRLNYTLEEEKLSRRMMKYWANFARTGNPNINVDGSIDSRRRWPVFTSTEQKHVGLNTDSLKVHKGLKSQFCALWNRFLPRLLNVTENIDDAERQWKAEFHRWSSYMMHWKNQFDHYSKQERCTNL
T3 sequence (P81908 whole entry): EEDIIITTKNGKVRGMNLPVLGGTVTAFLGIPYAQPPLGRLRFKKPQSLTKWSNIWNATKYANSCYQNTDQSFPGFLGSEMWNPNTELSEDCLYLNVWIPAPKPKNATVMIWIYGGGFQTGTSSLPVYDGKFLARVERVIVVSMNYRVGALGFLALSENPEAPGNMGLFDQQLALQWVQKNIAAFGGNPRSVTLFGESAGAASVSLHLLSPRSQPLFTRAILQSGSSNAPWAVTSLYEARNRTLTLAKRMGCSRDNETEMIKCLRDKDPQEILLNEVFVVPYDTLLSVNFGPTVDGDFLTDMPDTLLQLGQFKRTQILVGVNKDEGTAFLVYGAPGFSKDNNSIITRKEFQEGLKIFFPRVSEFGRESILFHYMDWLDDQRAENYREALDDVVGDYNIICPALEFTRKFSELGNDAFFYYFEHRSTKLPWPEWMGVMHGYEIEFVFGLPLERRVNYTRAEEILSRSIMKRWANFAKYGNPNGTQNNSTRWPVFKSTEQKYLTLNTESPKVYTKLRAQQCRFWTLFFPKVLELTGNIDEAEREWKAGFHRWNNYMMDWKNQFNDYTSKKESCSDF
T1 sequence (P06276 whole entry): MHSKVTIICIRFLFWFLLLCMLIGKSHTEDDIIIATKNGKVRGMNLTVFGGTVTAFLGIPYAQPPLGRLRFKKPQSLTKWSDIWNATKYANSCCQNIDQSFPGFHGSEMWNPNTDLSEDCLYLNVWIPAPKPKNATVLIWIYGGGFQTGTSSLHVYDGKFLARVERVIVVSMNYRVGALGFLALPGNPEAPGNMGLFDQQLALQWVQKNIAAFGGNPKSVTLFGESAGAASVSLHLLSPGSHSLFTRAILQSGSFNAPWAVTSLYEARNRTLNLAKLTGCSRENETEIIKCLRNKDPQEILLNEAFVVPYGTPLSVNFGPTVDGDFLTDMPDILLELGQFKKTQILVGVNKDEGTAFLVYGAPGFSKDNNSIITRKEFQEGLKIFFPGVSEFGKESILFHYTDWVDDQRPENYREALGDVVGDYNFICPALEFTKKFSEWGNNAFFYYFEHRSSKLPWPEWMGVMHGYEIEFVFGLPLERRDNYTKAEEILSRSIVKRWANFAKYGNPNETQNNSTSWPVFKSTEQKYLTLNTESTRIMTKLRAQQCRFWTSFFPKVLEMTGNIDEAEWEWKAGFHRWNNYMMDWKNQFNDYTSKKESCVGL
T2 sequence (P22303 whole entry, the tested form may be a part): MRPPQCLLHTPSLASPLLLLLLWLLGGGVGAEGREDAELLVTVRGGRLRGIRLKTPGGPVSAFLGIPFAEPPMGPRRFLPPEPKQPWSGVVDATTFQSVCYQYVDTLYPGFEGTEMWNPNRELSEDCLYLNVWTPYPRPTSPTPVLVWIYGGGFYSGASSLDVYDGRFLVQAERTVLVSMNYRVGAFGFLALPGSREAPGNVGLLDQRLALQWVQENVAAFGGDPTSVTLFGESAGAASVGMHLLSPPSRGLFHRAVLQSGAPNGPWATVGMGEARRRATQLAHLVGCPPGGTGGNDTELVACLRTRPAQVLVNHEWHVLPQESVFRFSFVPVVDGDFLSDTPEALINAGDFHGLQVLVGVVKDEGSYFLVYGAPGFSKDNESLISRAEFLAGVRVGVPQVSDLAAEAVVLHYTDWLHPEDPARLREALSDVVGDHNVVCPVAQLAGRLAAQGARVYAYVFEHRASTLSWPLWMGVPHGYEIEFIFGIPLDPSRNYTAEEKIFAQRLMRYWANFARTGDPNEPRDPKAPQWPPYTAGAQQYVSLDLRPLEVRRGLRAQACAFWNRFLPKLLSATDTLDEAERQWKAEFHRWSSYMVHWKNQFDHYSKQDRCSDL
Chain of Cholinesterase (Equus caballus) (P81908 whole entry): as the sequence (P81908 whole entry) above
Chain of Amyloid-beta precursor protein (Homo sapiens) (P05067 whole entry, the tested form may be a part): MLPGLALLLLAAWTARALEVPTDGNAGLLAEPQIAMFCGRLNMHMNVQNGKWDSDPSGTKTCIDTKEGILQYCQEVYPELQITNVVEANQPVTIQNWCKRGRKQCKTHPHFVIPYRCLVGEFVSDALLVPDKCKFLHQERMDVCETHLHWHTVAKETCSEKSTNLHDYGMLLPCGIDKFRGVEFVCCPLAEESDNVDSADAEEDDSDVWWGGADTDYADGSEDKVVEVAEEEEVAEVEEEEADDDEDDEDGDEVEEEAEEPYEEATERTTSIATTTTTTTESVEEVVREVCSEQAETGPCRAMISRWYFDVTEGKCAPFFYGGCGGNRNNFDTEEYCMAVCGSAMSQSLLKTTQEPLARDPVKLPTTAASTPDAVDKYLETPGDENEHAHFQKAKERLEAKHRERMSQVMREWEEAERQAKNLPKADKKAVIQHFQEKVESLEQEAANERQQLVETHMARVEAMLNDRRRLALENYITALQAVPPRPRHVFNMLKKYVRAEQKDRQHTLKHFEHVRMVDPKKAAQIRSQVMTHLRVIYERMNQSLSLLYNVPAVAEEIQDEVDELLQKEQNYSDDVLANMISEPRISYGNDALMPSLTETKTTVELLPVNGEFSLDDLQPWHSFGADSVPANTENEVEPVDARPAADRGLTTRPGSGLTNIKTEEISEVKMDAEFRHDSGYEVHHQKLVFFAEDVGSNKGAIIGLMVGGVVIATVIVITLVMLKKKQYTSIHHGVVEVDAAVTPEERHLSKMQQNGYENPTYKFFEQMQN

**Q.** Which results are given for `CCNC(=S)N/N=C/c1c(OC)cc(OC)c2c(-c3ccccc3)c[nH]c12`?
**A.** pIC50 (Cholinesterase [1]): 5.71; pIC50 (Acetylcholinesterase [2]): 4.23

**Q.** Which inhibition [3] does the source give for `CCN(C)C(=O)Oc1ccc(CCCNC(=O)c2cccc3[nH]c(-c4ccccc4O)nc23)cc1` here?
**A.** 60.8%

**Q.** With `CN(C)C(=O)Oc1ccc(C(=O)C2CCC(Cc3ccccc3)CC2)c(OC(=O)N(C)C)c1` (configuration not stated) as the molecule, how does the pIC50 (Cholinesterase [4]) read?
**A.** 6.28

**Q.** What about the pIC50 (Acetylcholinesterase [5]) of the same molecule?
**A.** 5.11

**Q.** Which inhibition (Acetylcholinesterase [6]) does the source give for `CCCCCCNC(=O)Oc1ccc2c(c1)CN1CCc3ccc(/N=N\c4ccccc4)cc3C1N2C` (configuration not stated) here?
**A.** 54.9%

**Q.** And the pIC50 (Cholinesterase [1])?
**A.** 7.36

**Q.** With `COc1cccc(C(=O)OCc2ccccc2)c1OC(=O)N(C)OC` as the molecule, how does the pIC50 (Cholinesterase [4]) read?
**A.** 6.00

**Q.** And the pIC50 (Acetylcholinesterase [5])?
**A.** < 4.00

**Q.** And the inhibition (Cholinesterase [7])?
**A.** 50%

**Q.** With `Nc1c2c(nc3ccccc13)CCC2` as the molecule, how does the pIC50 (Acetylcholinesterase [8]) read?
**A.** 5.36

**Q.** What about the pIC50 (Cholinesterase [4]) of the same molecule?
**A.** 6.57

**Q.** With `C/C(NCCCCNc1c2c(nc3ccccc13)CCCC2)=C(/N=N/c1ccc(C)cc1)C(=O)c1ccccc1` as the molecule, how does the pIC50 (Cholinesterase [9]) read?
**A.** 6.46

**Q.** With `CCN(CC)Cc1ccccc1CNC(=O)c1cccc(NC(=O)c2cccc(C(=O)NO)c2)c1` as the molecule, how does the pIC50 [10] read?
**A.** 7.15

**Q.** And the pIC50 (Cholinesterase [11])?
**A.** 8.74

**Q.** With `O=C(/C=C/c1ccccc1Cl)c1cc2ccccc2oc1=O` as the molecule, how does the pIC50 [12] read?
**A.** < 4.40

**Q.** What about the pIC50 [13] of the same molecule?
**A.** 6.29

**Q.** And the pIC50 [14]?
**A.** 5.15

**Q.** With `CC(C)N(Cc1ccccc1)C(=O)/C=C/C=C/c1ccc2c(c1)OCO2` as the molecule, how does the pIC50 (Acetylcholinesterase [15]) read?
**A.** < 3.00

**Q.** And the pIC50 (Cholinesterase [16])?
**A.** 5.34

**Q.** With `CCN(CC)Cc1ccccc1CNC(=O)c1cccc(NC(=O)c2cccc(NC(=O)CCCCCCC(=O)NO)c2)c1` as the molecule, how does the pIC50 [10] read?
**A.** 8.05

**Q.** And the pIC50 (Cholinesterase [11])?
**A.** 8.40

**Q.** With `NNc1nc(NN)nc(NCCNC(=O)c2cc3c([nH]c4ccccc43)c(-c3ccccc3)n2)n1` as the molecule, how does the pIC50 (Cholinesterase [4]) read?
**A.** 6.00

**Q.** What about the inhibition [17] of the same molecule?
**A.** 29.5%

**Q.** With `CCCCCCNC(=O)Oc1ccc2[nH]cc(CCNC(=O)c3ccccc3Nc3ccccc3)c2c1` as the molecule, how does the pIC50 (Cholinesterase [4]) read?
**A.** 8.15

**Q.** And the pIC50 (Acetylcholinesterase [5])?
**A.** < 4.00

**Q.** What about the Ratio IC50 [18] of the same molecule?
**A.** > 14300

**Q.** With `Cc1ccc(/C=N/NC(=O)Cn2c(=O)sc3ccccc32)s1` as the molecule, how does the pIC50 (Acetylcholinesterase [19]) read?
**A.** < 4.40

**Q.** What about the pIC50 (Cholinesterase [20]) of the same molecule?
**A.** 5.86

**Q.** With `CON(C)C(=O)Oc1cc(C)ccc1C(=O)NCCc1c[nH]c2ccc(Cl)cc12` as the molecule, how does the pIC50 (Cholinesterase [4]) read?
**A.** 7.24

**Q.** What about the pIC50 (Acetylcholinesterase [5]) of the same molecule?
**A.** < 4.00

**Q.** And the Ratio IC50 [18]?
**A.** > 1750

**Q.** With `O=C(NCCCCCCCCNc1c2c(nc3ccccc13)CCCC2)c1ccccc1O` as the molecule, how does the pIC50 (Cholinesterase [21]) read?
**A.** 8.00

**Q.** With `Cc1ccc(-c2nc3cc(C(=O)NNc4ccc(Br)cc4)ccc3[nH]2)cc1` as the molecule, how does the pIC50 (Acetylcholinesterase [22]) read?
**A.** < 4.00

**Q.** And the pIC50 [23]?
**A.** 5.84

**Q.** With `c1ccc(CN2CCC(NCCCCCCn3c4ccccc4c4ccccc43)CC2)cc1` as the molecule, how does the pIC50 (Cholinesterase [4]) read?
**A.** 6.74

**Q.** And the pIC50 (Acetylcholinesterase [5])?
**A.** 4.58
